Test results published in patent US6043279A, “Compounds having selective activity for retinoid X receptors, and means for modulation of processes mediated by retinoid X receptors” (priority 1997, dated 2000).

Assays:
Type in all cases: cell-based
[1] = molecular target: T1, RXRα (Homo sapiens, UniProt P19793); test: co-transfection (cis-trans) assay in CV-1 cells, RXRα; details: for Emax: CV-1, maximal response relative to all-trans-retinoic acid at 10^-5 M, read-out: Efficacy RXRα; for EC50: CV-1 cells, luciferase reporter, concentration giving 50% of maximal observed response, read-out: Potency (nM) RXRα
T1 construct: expressed in transfected cells; host or cells: CV-1 (monkey kidney)
T1 sequence (P19793 1-462): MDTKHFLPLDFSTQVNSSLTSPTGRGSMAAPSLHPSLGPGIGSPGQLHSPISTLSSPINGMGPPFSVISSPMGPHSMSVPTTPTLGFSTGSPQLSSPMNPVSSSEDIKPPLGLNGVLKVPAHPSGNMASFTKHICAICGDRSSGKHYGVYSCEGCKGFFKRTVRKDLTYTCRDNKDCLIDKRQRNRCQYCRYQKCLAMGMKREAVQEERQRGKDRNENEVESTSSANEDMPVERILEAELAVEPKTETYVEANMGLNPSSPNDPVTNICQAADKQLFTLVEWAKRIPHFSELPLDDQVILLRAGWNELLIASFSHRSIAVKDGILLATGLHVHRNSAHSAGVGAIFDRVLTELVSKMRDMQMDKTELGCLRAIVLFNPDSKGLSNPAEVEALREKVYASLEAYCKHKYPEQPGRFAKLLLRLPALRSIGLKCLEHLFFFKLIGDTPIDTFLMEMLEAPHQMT
Source text: (§1) The co-transfection assay provides a mechanism to evaluate the ability of a compound to modulate the transcription response initiated by an intracellular receptor. […] Berger et al., J. Steroid Biochem. Molec.
(§2) Briefly, the co-transfection assay involves the introduction of two plasmids by transient transfection into a retinoid receptor-negative mammalian cell background. The first plasmid contains a retinoid receptor cDNA and directs constitutive expression of the encoded receptor. The second plasmid contains a cDNA that encodes for a readily quantifiable protein, e.g., firefly luciferase or chloramphenicol acetyl transferase (CAT), under control of a promoter containing a retinoid acid response element, which confers retinoid dependence on the transcription of the reporter. In this co-transfection assay, all retinoid receptors respond to all-trans-retinoic acid in a similar fashion. This assay can be used to accurately measure efficacy and potency of retinoic acid and synthetic retinoids as ligands that interact with the individual retinoid receptor subtypes.
(§3) Accordingly, synthetic retinoid compounds of the current invention were evaluated for their interaction with retinoid receptor subtypes using the co-transfection assay in which CV-1 cells were co-transfected with one of the retinoid receptor subtypes, a reporter construct, and an internal control to allow normalization of the response for transfection efficiency. The following example is illustrative.
(§4) Retinoids: All-trans-retinoic acid (RA) and 13-cis-retinoic acid (13-cis-RA) were obtained from Sigma. […] Retinoids were dissolved in dimethylsulfoxide for use in the transcriptional activation assays.
(§5) Co-transfection Assay In CV-1 Cells: A monkey kidney cell line, CV-1, was used in the cis-trans assay. Cells were transfected with two plasmids. […] The cis-vector contains an easily assayable gene product, in this case the firefly luciferase, coupled to a retinoid-responsive promoter, i.e., an RARE or RXRE. Addition of retinoic acid or an appropriate synthetic retinoid results in the formation of a retinoid-RAR or -RXR complex that activates the expression of luciferase gene, causing light to be emitted from cell extracts. The level of luciferase activity is directly proportional to the effectiveness of the retinoid-receptor complex in activating gene expression. This sensitive and reproducible co-transfection approach permits the identification of retinoids that interact with the different receptor isoforms.
(§6) Cells were cultured in DMEM supplemented with 10% charcoal resin-stripped fetal bovine serum, and experiments were conducted in 96-well plates. […] Cells were transfected for 6 h and then washed to remove the precipitate. The cells were then incubated for 36 h with or without retinoid. […]

[2] = molecular target: T2, RXRβ (Mus musculus, UniProt P28704); test: co-transfection (cis-trans) assay in CV-1 cells, RXRβ; details: for Emax: CV-1, maximal response relative to all-trans-retinoic acid at 10^-5 M, read-out: Efficacy RXRβ; for EC50: CV-1 cells, luciferase reporter, concentration giving 50% of maximal observed response, read-out: Potency (nM) RXRβ
T2 construct: expressed in transfected cells; host or cells: CV-1 (monkey kidney)
T2 sequence (P28704 1-520): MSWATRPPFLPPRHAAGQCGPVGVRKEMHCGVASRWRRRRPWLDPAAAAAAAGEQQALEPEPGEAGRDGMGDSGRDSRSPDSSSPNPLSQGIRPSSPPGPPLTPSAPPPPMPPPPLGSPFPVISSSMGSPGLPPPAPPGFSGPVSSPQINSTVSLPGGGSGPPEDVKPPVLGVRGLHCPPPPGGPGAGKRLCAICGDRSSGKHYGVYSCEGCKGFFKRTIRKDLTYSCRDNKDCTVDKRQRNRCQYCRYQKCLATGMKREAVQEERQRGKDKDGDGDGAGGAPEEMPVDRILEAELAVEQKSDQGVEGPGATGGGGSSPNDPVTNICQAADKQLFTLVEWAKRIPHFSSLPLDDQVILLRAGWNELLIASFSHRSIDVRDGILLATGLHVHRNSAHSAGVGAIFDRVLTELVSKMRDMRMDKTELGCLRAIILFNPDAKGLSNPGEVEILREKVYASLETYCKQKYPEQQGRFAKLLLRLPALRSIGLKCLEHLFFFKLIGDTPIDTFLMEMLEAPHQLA
Source text: as §1, §2, §3, §4, §5
Cells were cultured in DMEM supplemented with 10% charcoal resin-stripped fetal bovine serum, and experiments were conducted in 96-well plates. […] Cells were transfected for 6 h and then washed to remove the precipitate. The cells were then incubated for 36 h with or without retinoid. After the transfection, all subsequent steps were performed on a Beckman Biomek Automated Workstation. […] All determinations were performed in triplicate in two independent experiments and were normalized for transfection efficiency by using β-galactosidase as the internal control. […] Efficacy values less than 5% are not statistically different than the 0% background.

[3] = molecular target: T3, RARα (Homo sapiens, UniProt P10276); test: co-transfection (cis-trans) assay in CV-1 cells, RARα; details: for Emax: CV-1, maximal response relative to all-trans-retinoic acid at 10^-5 M, read-out: Efficacy RARα; for EC50: CV-1 cells, luciferase reporter, concentration giving 50% of maximal observed response, read-out: Potency (nM) RARα
T3 construct: expressed in transfected cells; host or cells: CV-1 (monkey kidney)
T3 sequence (P10276 1-462): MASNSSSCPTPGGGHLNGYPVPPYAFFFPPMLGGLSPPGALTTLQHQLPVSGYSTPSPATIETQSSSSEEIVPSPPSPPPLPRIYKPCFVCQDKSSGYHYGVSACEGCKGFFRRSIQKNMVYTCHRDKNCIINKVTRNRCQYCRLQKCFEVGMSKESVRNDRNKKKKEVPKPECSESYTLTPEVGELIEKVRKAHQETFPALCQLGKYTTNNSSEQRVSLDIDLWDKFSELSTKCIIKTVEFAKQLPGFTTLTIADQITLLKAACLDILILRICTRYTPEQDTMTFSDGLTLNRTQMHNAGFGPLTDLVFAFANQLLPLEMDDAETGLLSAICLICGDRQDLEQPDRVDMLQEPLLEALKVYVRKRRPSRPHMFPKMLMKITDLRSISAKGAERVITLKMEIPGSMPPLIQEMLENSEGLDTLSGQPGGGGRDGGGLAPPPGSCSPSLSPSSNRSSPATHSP
Source text: as §1, §2, §3, §4, §5, §6

Question: `C=C(c1ccc(C(=O)O)cc1)c1ccc(C(C)(C)C)cc1C` [Compound 133, 4-[1-(2-methyl-4-t-butylphenyl)ethenyl]benzoic acid] was tested. Which Emax [1] did it give?
Answer: 86%

Question: And the EC50 [1]?
Answer: 440 nM

Question: And the Emax [2]?
Answer: 56%

Question: What about the EC50 [2] of the same compound?
Answer: 470 nM

Question: What about the Emax [3] of the same compound?
Answer: < 2%

Question: What about the EC50 [3] of the same compound?
Answer: > 10000 nM

Question: For `Cc1cc(C(C)(C)C)ccc1C(=NO)c1ccc(C(=O)O)cc1` [Compound 137, 4-[(2-methyl-4-t-butylphenyl)carbonyl]benzoic acid oxime], which Emax [1] is on record?
Answer: 47%

Question: What about the EC50 [1] of the same compound?
Answer: 270 nM

Question: And the Emax [2]?
Answer: 57%

Question: What about the EC50 [2] of the same compound?
Answer: 270 nM

Question: What about the Emax [3] of the same compound?
Answer: < 2%

Question: What about the EC50 [3] of the same compound?
Answer: > 10000 nM
